One compound from patent US9221907B2, “Anti-GPR49 monoclonal antibodies” (Bionomics Inc., priority 2011, dated 2015) can be followed below.

Structures are written as SMILES.

This assay relates to colon tumor cells re-implanted in secondary recipients. Briefly: Secondary transplant of GPR49 mAb+irinotecan treated tumor cells. It counts as in vivo, mouse. As to conditions: 140 day follow-up. The source says:
Isolated tumor cells from control or GPR49 mAb+irinotecan treated tumors from the in vivo study outlined in Example 3 were harvested, pooled, dissociated and re-implanted in a limiting dilution secondary transplant assay to measure cancer stem cell frequency. For each treatment group, 8 mice were implanted with 10, 30, 100 cells. […]

For the compound `CCc1c2c(nc3ccc(OC(=O)N4CCC(N5CCCCC5)CC4)cc13)-c1cc3c(c(=O)n1C2)COC(=O)[C@]3(O)CC` [Irinotecan], the mice with tumors is 7/8.
